US9744181B2, “Compositions and methods for combination antiviral therapy” (priority 2003, dated 2017)
Where a name gives a salt, the structure may show the parent alone.

Tests used:
[1] = combination tablet, six months at 40° C./75% RH; for loss in % label strength: with desiccant, significant defined as ≧5% degradation
HIV = conditions: patients, once-a-day dose of 200 mg
HIV replication = conditions: in combination with PMPA, d4T, ddC, nelfinavir, ritonavir, and saquinavir; cited from earlier work
HIV-1 = conditions: in combination with recombinant soluble CD4 castanosperinine and recombinant interferon-α; cited from earlier work
[2] = tested on: normal human bone marrow progenitor cells; conditions: AZT together with recombinant interferon-α; cited from earlier work

CC(C)OC(=O)OCOP(=O)(CO[C@H](C)Cn1cnc2c(N)ncnc21)OCOC(=O)OC(C)C [Tenofovir disoproxil fumarate, 9-[(R)-2-[[bis[[(isopropoxycarbonyl)oxy]methoxy]phosphinyl]methoxy]propyl]adenine fumarate (1:1)]
increase in the total degradation products ([1]; packaged and stored with 3 grams of desiccant): 1.5%
loss in % label strength [1]: No significant loss

Nc1nc(=O)n([C@@H]2CS[C@H](CO)O2)cc1F (single isomer, unassigned) [Emtricitabine]
average reduction of viral load (HIV): 99%
loss in % label strength [1]: No significant loss

CC(C)(C)C(=O)OCOP(=O)(COCCn1cnc2c(N)ncnc21)OCOC(=O)C(C)(C)C [Adefovir dipivoxil]
synergy of inhibition of HIV replication (HIV replication): minor to moderate synergistic inhibition

Cc1cn([C@H]2C[C@H](N=[N+]=[N-])[C@@H](CO)O2)c(=O)[nH]c1=O [AZT, 3′-azido, 3′-deoxythymidine]
synergy of antiviral activity in vitro (HIV-1): synergistic antiviral activity
cytotoxic effect [2]: increased cytotoxic effect
